The results in this text go back to US20250129021A1, “SMALL MOLECULE PROTEIN SYNTHESIS MODULATORS” (Interdict Bio, Inc., priority 2023, published 2025).

Common to all, as to assay type: biochemical
Test [1] relates to MCL-1. The test can be described thus: In vitro transcription-translation (IVTT) assay, MCL-1 reporter. The note with it: IVTT, HeLa S3 lysate, 2 hrs at 30° C.; read-out: MCL1 IC50. The procedure, abridged:
(§1)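 Reporter: mCherry, P2A, then 3×FLAG-target peptide-sfGFP fusion, IRES-initiated; HeLa S3 lysate IVTT; cpd dilutions 30 μM−0.1 μM half-log in 100% DMSO (dilution-plate conc); DNA added last; 2 h, 30° C; PBS quench.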

Test [2] deals with CCND1. As to the kind of experiment: In vitro transcription-translation (IVTT) assay, CCND1 reporter. The note with it: IVTT, HeLa S3 lysate, 2 hrs at 30° C. The procedure, abridged:
as §1

Test [3] concerns CCNTB1. As to the kind of experiment: In vitro transcription-translation (IVTT) assay, CCNTB1 reporter. The note with it: HeLa S3 lysate, 2 hrs at 30° C. The procedure, abridged: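 HeLa S3 lysate-based coupled transcription-translation reactions with reporter plasmids, compounds in half-log dilutions (30 μM−0.1 μM, in DMSO), 2 h at 30° C. sfGFP/mCherry ratio, corrected for no-DNA background, normalized to no-drug control and fitted for IC50.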

The test system of test [4] is MYC. The test can be described thus: In vitro transcription-translation (IVTT) assay, MYC reporter. The note with it: IVTT assay, HeLa S3 lysate, MYC reporter, normalized sfGFP/mCherry ratio; half-log dilutions 30 μM-0.1 μM, 2 hrs at 30° C. The method, boiled down:
as §1

By IC50 is commonly meant the point on the concentration scale where inhibition reaches its midpoint. For the molecule `COc1ccc(C[C@H]2NC[C@H](O)[C@H]2OC(=O)NCC=C(C)C)cc1` [V190411, (2R,3S,4S)-4-hydroxy-2-[(4-methoxyphenyl)methyl]pyrrolidin-3-yl N-(3-methylbut-2-en-1-yl)carbamate], the half-maximal inhibitory concentration (IC50) is 10 to 20 µM in test [1], 10 to 20 µM in test [2], below 10 µM in test [3] and 10 to 20 µM in test [4].
As to `COc1ccc(C[C@H]2NC[C@H](O)[C@H]2OC(=O)NCCC(C)(C)O)cc1` [V190413, (2R,3S,4S)-4-hydroxy-2-[(4-methoxyphenyl)methyl]pyrrolidin-3-yl N-(3-hydroxy-3-methylbutyl)carbamate], the 50% inhibitory concentration (IC50) in test [1] was 10 to 20 µM; in test [2] it was 20 to 30 µM; in test [3], below 10 µM; in test [4], 10 to 20 µM.
For the molecule `COc1ccc(C[C@H]2NC[C@H](O)[C@H]2OC(=O)NCCc2c(C)noc2C)cc1` [V190414, (2R,3S,4S)-4-hydroxy-2-[(4-methoxyphenyl)methyl]pyrrolidin-3-yl N-[2-(3,5-dimethyl-1,2-oxazol-4-yl)ethyl]carbamate], the IC50 was above 30 µM in test [1], above 30 µM in test [2], 20 to 30 µM in test [3] and above 30 µM in test [4].
Take `COc1ccc(C[C@H]2NC[C@H](O)[C@H]2OC(=O)NCCn2nc(C)cc2C)cc1` [V190415, (2R,3S,4S)-4-hydroxy-2-[(4-methoxyphenyl)methyl]pyrrolidin-3-yl N-[2-(3,5-dimethylpyrazol-1-yl)ethyl]carbamate]: the 50% inhibitory concentration (IC50) in test [1], in test [2], in test [3] and in test [4] was above 30 µM in each case.
Turning to `COc1ccc(C[C@H]2NC[C@H](O)[C@H]2OC(=O)NCCc2cnoc2)cc1` [V190449, (2R,3S,4S)-4-hydroxy-2-[(4-methoxyphenyl)methyl]pyrrolidin-3-yl N-[2-(1,2-oxazol-4-yl)ethyl]carbamate], the IC50 in test [1], in test [2], in test [3] and in test [4] was below 10 µM each time.
Regarding `COc1ccc(C[C@H]2NC[C@H](O)[C@H]2OC(=O)NCc2cccc3cn[nH]c23)cc1` [V190459, (2R,3S,4S)-4-hydroxy-2-[(4-methoxyphenyl)methyl]pyrrolidin-3-yl N-(1H-indazol-7-ylmethyl)carbamate], the IC50 in test [1] was below 10 µM; in test [2] it was 10 to 20 µM; in test [3], below 10 µM; in test [4], below 10 µM.
In the case of `O=C(NCC[C@@H]1CCCN1)O[C@@H]1[C@@H](O)CN[C@@H]1Cc1ccc(-c2ccccc2)cc1` [V190505, (2R,3S,4S)-2-{[1,1′-biphenyl]-4-ylmethyl}-4-hydroxypyrrolidin-3-yl N-{2-[(2S)-pyrrolidin-2-yl]ethyl}carbamate], the IC50 in test [1], in test [2], in test [3] and in test [4] was below 10 µM each time.
As for `O=C(NCc1cccc(F)c1)O[C@@H]1[C@@H](O)CN[C@@H]1Cc1ccc(F)cc1` [V190506, (2R,3S,4S)-2-[(4-fluorophenyl)methyl]-4-hydroxypyrrolidin-3-yl N-[(3-fluorophenyl)methyl]carbamate], the IC50 in test [1] is below 10 µM; in test [2], 10 to 20 µM; in test [3], below 10 µM; in test [4], below 10 µM.
As to `O=C(NCc1cccc(F)c1)O[C@@H]1[C@@H](O)CN[C@@H]1Cc1ccc(OC(F)(F)F)cc1` [V190509, (2R,3S,4S)-4-hydroxy-2-(4-(trifluoromethoxy)benzyl)pyrrolidin-3-yl (3-fluorobenzyl)carbamate], the IC50 in test [1] was above 30 µM; in test [2], above 30 µM; in test [3] it was 20 to 30 µM; in test [4], above 30 µM.
Take `O=C(NCc1cccc(F)c1)O[C@@H]1[C@@H](O)CN[C@@H]1Cc1ccc(-c2cscn2)cc1` [V190511, (2R,3S,4S)-4-hydroxy-2-{[4-(1,3-thiazol-4-yl)phenyl]methyl}pyrrolidin-3-yl N-[(3-fluorophenyl)methyl]carbamate]: the IC50 in test [1], in test [2], in test [3] and in test [4] was below 10 µM each time.
